Earlier results, collected in PMC5599218 (Biomaterials, 2017).
Values joined by “and” are separate entries in the source; they are usually repeats but may differ in a detail not shown here. Equal values may be shown once.

How the values were obtained:
[1] = women using DPV vaginal rings for 7d; ref [54]
[2] = DPV vaginal films, after 6h exposure, estimated; ref [59]
[3] = oral daily dosing, 12h after the last dose; ref [52]
[4] = system: HIV-1; conditions: ref [52]

SMILES | Mean vaginal fluid concentrations of DPV [1] [µg/mL] | DPV provided to human cervical explant tissues [2] | ETR concentration in cervicovaginal fluid (CVF) [3] [µg/mL] | in vitro IC50 [4]
Cc1cc(C)c(Nc2ccnc(Nc3ccc(C#N)cc3)n2)c(C)c1 [DPV, Dapivirine] | 0.7 to 7.1 | 152–334 nM and 0.05–0.11 μg/mL |  | 
Cc1cc(C#N)cc(C)c1Oc1nc(Nc2ccc(C#N)cc2)nc(N)c1Br [ETR, etravirine] |  |  | 0.857 | ~ 2 ng/mL
